row,melting point,Structure (SMILES)
1,175 to 179 °C,CCN1C(=O)C2CC(c3ccc([N+](=O)[O-])cc3)(C2)C1=O
2,248 to 249 °C,CC1=c2c(cc3c(c2C)-c2ccccc2N=3)N=C1c1nc(C)no1
3,251 to 253 °C,CCC(NC(=O)C1CC1)c1ccc(Cl)c2nc3n(c12)CCCN3c1ccc(Cl)cc1Cl (centres undefined)
4,111 to 116 °C,CCc1c([N+](=O)[O-])c(C(N)=O)nn1C[C@H]1CCCN1C
5,94 to 96 °C,CC[C@H](C)C(OCc1ccccc1F)[C@H]1[C@H]([N+](=O)[O-])[C@@H](c2cccs2)N[C@@H]1C(=O)NCCC(=O)O (some centres undefined)
6,101 to 103 °C,Cc1cccc([N+](=O)[O-])c1C#N
7,145 to 147 °C,Cc1ccn(-c2nc(C)c(C(=O)NCc3ccccc3)s2)c(=O)c1
8,102 to 115 °C,CCCCSCC(=O)c1cc2sc(=O)[nH]c2cc1Cl
9,138 °C,Cc1nc(C(CC(C)C)Nc2c(C#N)cnn3cccc23)sc1C (centres undefined)
10,93 to 94 °C,CCOC(=O)c1ccc(NCCCOc2cccc3ccccc23)cc1
11,97 to 98 °C,CCOc1cc(Cn2cc(CCC(=O)O)c(-c3ccccc3)c2)cc(OCc2csc(-c3cnccn3)n2)c1
12,138 °C,CCOC(=O)c1c(C)n(-c2ccc(N(CC)CC)cc2)c(C)c(C(=O)OCC)c1=O
13,179 °C,CCc1c(Cl)c2ccccn2c1C(=O)c1ccc(O)cc1
14,174 to 177 °C,CC(=O)OC1CSC(Oc2ccc(-c3sc(C)nc3C)nc2)C(OC(C)=O)C1OC(C)=O (centres undefined)
15,232 °C,CCCC(=O)Nc1n[nH]c2cc(-c3ccc(F)cc3)ccc12
16,153 to 155 °C,COc1ccc(S(=O)(=O)c2cnc(C)nc2Nc2c(C)cc(C)cc2C)cc1
17,180 to 182 °C,CNc1ncnc2c1nnn2Cc1ccccc1F
18,140 to 141 °C,CCOC(=O)C(C#N)=CNc1cccc(I)c1
19,175 to 177 °C,Cc1ccc(S(=O)(=O)N(C)c2ccc(Cl)cc2C(=O)O)cc1
20,140 °C,COCCNC(=O)Nc1nc2cc(OS(=O)(=O)c3c(C)cc(C)cc3C)ccc2[nH]1
21,300 to 302 °C,CCOC(=O)c1cc2c3n(ccc-2n1)C([N+](=O)[O-])C(C)=N3 (centres undefined)
22,247 °C,Cc1ccc2[nH]c(=S)c(C(=O)c3ccc([N+](=O)[O-])cc3)c(O)c2c1
23,89 to 90 °C,CCOC(=O)C1=C(C)NC(COC(C)=O)=C(C(=O)OCC)C1c1ccc(OC)cc1 (centres undefined)
24,112 to 113 °C,CNC(=O)OCc1nc(C(C)C)c(Sc2cc(Cl)cc(Cl)c2)n1C

row,melting point,Structure (SMILES)
1,215 to 217 °C,Cc1c(N2CC(F)[C@](C)(N)C2)c(F)cc2c(=O)c(C(=O)O)cn([C@@H]3C[C@@H]3F)c12 (some centres undefined)
2,69 to 70 °C,CCCCOCc1cc2ccccc2oc1=O
3,253 to 255 °C,O=C(O)c1cn(CCO)c2c(F)c(N3CCn4ccnc4C3)c(F)cc2c1=O
4,151 to 153 °C,O=C1NC(C(=O)NCCO[N+](=O)[O-])C(c2cccc3ccccc23)S1 (centres undefined)
5,94.5 to 95 °C,CC1(C)C(=O)C(C(=O)c2ccc(C(F)(F)F)nc2CBr)=C(Cl)C(C)(C)C1=O
6,187 to 189 °C,CN(C)C=CC(=O)c1c(-c2ccccc2Cl)nc2occn12
7,> 280 °C,Cc1ccc2c(c1)c1cc(-c3ccc(O)cc3)c(=O)n(C)c1n2C
8,61 to 63 °C,CCCCc1ccc2nc(Cl)cn2n1
9,186 to 188 °C,CCn1cc(C(=O)O)c(=O)c2cc(F)c(N3CCNC(c4ccc(C)o4)C3)cc21 (centres undefined)
10,157 to 158 °C,COC(=O)Cn1c(C)cc(Cc2ccsc2)c([N+](=O)[O-])c1=O
11,125 to 127 °C,Cc1c(O[Si](C)(C)C(C)(C)C)cc(N2C(=O)c3ccccc3C2=O)cc1C(=O)OCc1ccc([N+](=O)[O-])cc1
12,90 to 95 °C,O=[N+]([O-])c1cccc(/C=C/c2nc(C3CC3)cs2)c1
13,180 to 181 °C,Cc1nc(-c2ccc(C(F)(F)F)cc2)sc1CN(C)c1ccc(OCC(=O)O)c(C(F)(F)F)c1
14,55 to 56 °C,C=Cc1cccc(OC)c1[N+](=O)[O-]
15,112 to 113 °C,CCCC(=O)Oc1ccc(C2=NNC(=O)CC2C)cc1 (centres undefined)
16,139 to 140 °C,O=C(O)CCc1cnoc1-c1ccc(Cl)c(F)c1
17,57 °C,CCN(CC)C(=O)C(C)Cc1nc(-c2ccccc2)cc2ccccc12 (centres undefined)
18,> 200 °C,Cc1nc(O)c([N+](=O)[O-])c(N2CCc3ccccc3CC2)n1
19,173 to 175 °C,O=C(c1ccc(N2CCOCC2)cc1)c1ccc([N+](=O)[O-])cc1
20,156 to 158 °C,CCc1cc2c(O)c(C(=O)OCC(C)C)cnc2s1
21,117 to 118 °C,CCOC(=O)c1cccc2ncc(CN(C)C)n12
22,126 to 127 °C,COC(=O)c1ccc(-c2noc(C(F)(F)F)n2)s1
23,214 to 218 °C,O=C1c2ccccc2C(=O)N1C[C@@H](O)COc1ccc(Cl)cc1O

# The remaining lines, values behind:
row,Structure (SMILES),melting point
1,O=C(Cc1ccccc1)c1ccc(C(=O)Cc2ccccc2)cc1,171 to 173 °C
2,c1cc(-c2nc(COC3CCCCO3)no2)sc1CN1CCCCCC1 (centres undefined),79 to 81 °C
3,OC(Cn1ccnc1)(c1ccc(Cl)cc1)C1(n2cnc(Cl)n2)CC1 (centres undefined),231 °C
4,O=C(CC(=O)C(F)(F)Cl)c1ccc(Cl)cc1,50 to 51 °C
5,CNC(Cc1ccccc1)C(=O)N[C@@H](Cc1cccc2ccccc12)C(=O)O (some centres undefined),104 to 107 °C
6,N#Cc1ccc2[nH]c3c(ccc4cc[nH]c43)c2c1,> 250 °C
7,O=C(NCCNCC(O)COc1ccc(OCCOCC2CC2)cc1)N1CCOCC1 (centres undefined),80 to 81 °C
8,CCOc1cc(N)c(Cl)cc1C(=O)NC1CCN(CC2CCN(C(=O)N(C)C)CC2)CC1,203 to 205 °C
9,COc1cc(OC)c(C(=O)CC(O)C(=O)O)cc1OC (centres undefined),145 to 147 °C
10,FC(F)(F)c1cccc(-c2cc(C(F)(F)F)n3ncc(I)c3n2)c1,142 °C
11,Cc1oc(-c2ccccc2)nc1CCOc1ccc(CC(C)(C(=O)O)c2ccccc2)cc1 (centres undefined),178 to 179 °C
12,NC(=O)c1cccc(NC(=O)C(F)(F)F)c1,262 to 263 °C
13,COc1ccc(C2=C(C(=O)N3CCOCC3)C(=O)c3ccccc32)cc1OC,71.5 °C
14,COc1ccc2c(c1)C(=O)c1c-2c(N2CCNCC2)nc2ccc(F)cc12,157 to 158 °C
15,NC(=O)c1cc(OCCNCC(O)c2ccc(OCc3ccccc3)cc2)ccc1O (centres undefined),160 to 162 °C
16,CCCCc1nc2ccc(C(=O)O)cc2n1Cc1ccc(-c2ccccc2-c2nnn[nH]2)cc1,258 to 259 °C
17,OCc1cc2cc(-c3ccc4ccc(Cl)cc4n3)ccc2o1,206 to 207 °C
18,O=S1(=O)N=CN(C2CC2)c2c(F)cccc21,151 to 152 °C
19,Nc1ccc(N2CC(O)C2)nc1,148 to 150 °C
20,CC(=Nc1c(C)cccc1C)C(C)=Nc1c(C)cccc1C,78 to 86 °C
21,COc1cc(O)c(C=O)c2cc(-c3ccc(O)cc3)oc12,254 to 255 °C
22,CCCOc1c(OC)cc(Cl)c2c1CN1CCc3cc(OC)c(OCc4ccccc4)cc3C1C2 (centres undefined),118 to 120 °C
23,NNC(=O)C1(Cl)CC1(Cl)Cl (centres undefined),122 to 123 °C
24,COc1cccc(OC)c1-c1ccc(CC(NC(=O)Nc2ccccc2S(=O)(=O)c2ccccc2)C(=O)O)cc1 (centres undefined),119 °C
25,FC(F)(F)C1(c2cc(Cl)cc(Cl)c2)CC(c2ccc(-n3cccc3)cc2)=NO1 (centres undefined),206 to 208 °C
26,COc1ccc2nc3ccc(OC)cc3c(C(=O)Oc3c(Br)cccc3Br)c2c1,245 to 247 °C

row,Structure (SMILES),melting point
1,Fc1ccc(N2CCN(c3cccc(C(F)(F)F)c3)CC2)nn1,132 °C
2,Cc1cnn(-c2cc(F)c(C#N)cc2F)c(=O)c1,223 °C
3,CN(C)S(=O)(=O)Oc1ccc2c(c1)CCC1C2CCC2(C)C(O)C(O)CC12 (centres undefined),180 to 181 °C
4,CCCCNC(=O)[C@H](C)C[C@H](O)[C@H](CC1CCCCC1)NC(=O)[C@H](Cc1cscn1)NC(=O)[C@@H](CC(=O)N1CCN(C)CC1)Cc1ccc(OC)cc1,125 to 126 °C
5,O=c1oc(C(F)(F)F)ccc1-c1ccc(Cl)cc1F,107 to 108 °C
6,CC(=O)OCC(ON1C(C)(C)CC(O)CC1(C)C)c1ccccc1 (centres undefined),68 to 69 °C
7,Cn1c(C(F)(F)F)cc(=O)n(-c2cc(S(=O)(=O)n3cccn3)c(Cl)cc2F)c1=O,172 °C
8,COc1cc(CNC(=S)NC(COC(=O)C(C)(C)C)Cc2ccc(C(C)(C)C)cc2)ccc1O (centres undefined),117 to 119 °C
9,O=c1[nH]c2ccc(S(=O)CCN3CCC(O)(Cc4ccccc4)CC3)cc2o1 (centres undefined),138 to 140 °C
10,Cc1c(C)c2c(c(C)c1O)CC[C@](C)(C(=O)N[C@H]1CCOC1O)O2 (some centres undefined),67 to 70 °C
11,CC1=NC(C)(C)SC1=NOC(=O)N(C)SN(C)C(=O)F,77 to 79 °C
12,Cc1csc(NC(=O)c2cn(-c3ccccc3)c3ccccc3c2=O)n1,252 to 254 °C
13,COc1ccccc1COc1ccc(S(=O)(=O)c2ccc(C)nc2Nc2ccc(Cl)cc2C#N)cc1,178 to 180 °C
14,Cn1ncnc1COc1nn2c(-c3ccc(F)cc3F)nncc2c1-c1ccccc1F,164 to 166 °C
15,COC(=O)c1ccc(CCc2ccncc2)cc1,62 to 64 °C
16,Nc1ccc(Nc2cccc(O)c2)cc1,146 to 149 °C
17,O=c1nc(-c2cccc(-c3ccccc3)n2)sc2ccccc12,195 to 197 °C
18,Nc1ccc(C=Cc2cc(=O)cc(-c3ccccc3)o2)cc1,192 to 194 °C
19,COc1ccc(-c2ccc(C(=O)Nc3ccc4cc(CN5C(C)CCCC5C)ccc4c3)cc2)cc1 (centres undefined),199 to 200 °C
20,C=CCC1(CC=C)CCC(=Cc2ccc(F)cc2)C1(O)Cn1cncn1 (centres undefined),112 °C
21,O=C(/C=C/c1cccc(Cl)c1)N1CCCC1,137 to 138 °C
22,COC(=O)CC(=O)CC(O)/C=C/C1=C(c2ccc(F)cc2)C=C(c2ccc(F)cc2)CC12CCCC2 (centres undefined),96 to 99 °C
23,CN(C)CCC(Oc1ccc(N)cc1)c1ccccc1 (centres undefined),82 to 84 °C
24,O=c1ccn([C@H]2C=C[C@@H](O)C2)cc1 (racemic),188 to 189 °C
25,CCCc1c(OCCOc2ccc(C(=O)NCCCCc3cccnc3)cc2)ccc(C(C)=O)c1O,93 °C
26,CCCCc1c(OC)cc(C)c(C=CC(C)=CC=CC(C)=CC(=O)OCC)c1C,147 to 148 °C

# Reference: a melting point compilation (Tetko et al.; mined from patent text by program, amines drawn as free bases though some values may be those of a salt)
